The structures appear in SMILES notation. Active and inactive are the calls of the source. Some results are limits rather than exact numbers.

One test concerns the target T1, fMet-Leu-Phe receptor (Homo sapiens, UniProt P21462).
T1 sequence (P21462 whole entry): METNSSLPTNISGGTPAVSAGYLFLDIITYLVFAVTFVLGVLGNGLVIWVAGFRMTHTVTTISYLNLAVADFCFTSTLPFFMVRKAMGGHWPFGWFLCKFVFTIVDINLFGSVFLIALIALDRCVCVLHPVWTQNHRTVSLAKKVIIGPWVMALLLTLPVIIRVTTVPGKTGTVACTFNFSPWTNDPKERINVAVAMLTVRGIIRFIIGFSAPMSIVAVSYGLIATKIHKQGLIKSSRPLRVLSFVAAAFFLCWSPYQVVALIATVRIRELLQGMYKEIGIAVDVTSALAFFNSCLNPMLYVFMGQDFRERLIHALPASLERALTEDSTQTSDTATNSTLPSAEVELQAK
In words: FPR ligands, dose response (AID 519). The format is functional.

Test [1] has as its target T2, Replicative DNA helicase DnaB (Mycobacterium tuberculosis, UniProt P9WMR3).
T2 sequence (P9WMR3 whole entry): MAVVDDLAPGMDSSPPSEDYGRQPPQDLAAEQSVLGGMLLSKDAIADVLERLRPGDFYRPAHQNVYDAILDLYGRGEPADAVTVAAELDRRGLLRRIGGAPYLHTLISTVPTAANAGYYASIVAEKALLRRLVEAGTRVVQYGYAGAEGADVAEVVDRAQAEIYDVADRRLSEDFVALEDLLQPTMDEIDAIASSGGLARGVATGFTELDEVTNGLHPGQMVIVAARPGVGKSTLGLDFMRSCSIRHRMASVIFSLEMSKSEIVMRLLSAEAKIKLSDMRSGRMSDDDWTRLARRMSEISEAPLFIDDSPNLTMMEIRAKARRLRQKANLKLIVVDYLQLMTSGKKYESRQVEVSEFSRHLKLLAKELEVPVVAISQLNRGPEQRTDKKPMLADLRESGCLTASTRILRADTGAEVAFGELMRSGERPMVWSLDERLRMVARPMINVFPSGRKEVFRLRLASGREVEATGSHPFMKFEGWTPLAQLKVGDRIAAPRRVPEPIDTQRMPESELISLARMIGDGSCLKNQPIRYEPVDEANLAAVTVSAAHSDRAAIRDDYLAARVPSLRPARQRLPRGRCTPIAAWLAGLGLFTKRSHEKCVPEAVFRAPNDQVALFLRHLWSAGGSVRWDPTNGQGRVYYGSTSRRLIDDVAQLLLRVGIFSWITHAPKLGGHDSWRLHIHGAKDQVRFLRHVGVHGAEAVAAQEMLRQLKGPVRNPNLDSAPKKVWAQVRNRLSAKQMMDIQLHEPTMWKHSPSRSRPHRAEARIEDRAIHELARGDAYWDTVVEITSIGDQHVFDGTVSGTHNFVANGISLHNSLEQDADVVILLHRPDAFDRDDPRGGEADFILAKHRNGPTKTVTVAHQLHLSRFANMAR
In words: DnaB intein splicing inhibitors, dose response, biochemical, cell-free fluorescence (AID 449749). The format is functional.

The target of the next test is T3, Protein RecA (Mycobacterium tuberculosis, UniProt P9WHJ3).
T3 sequence (P9WHJ3 whole entry): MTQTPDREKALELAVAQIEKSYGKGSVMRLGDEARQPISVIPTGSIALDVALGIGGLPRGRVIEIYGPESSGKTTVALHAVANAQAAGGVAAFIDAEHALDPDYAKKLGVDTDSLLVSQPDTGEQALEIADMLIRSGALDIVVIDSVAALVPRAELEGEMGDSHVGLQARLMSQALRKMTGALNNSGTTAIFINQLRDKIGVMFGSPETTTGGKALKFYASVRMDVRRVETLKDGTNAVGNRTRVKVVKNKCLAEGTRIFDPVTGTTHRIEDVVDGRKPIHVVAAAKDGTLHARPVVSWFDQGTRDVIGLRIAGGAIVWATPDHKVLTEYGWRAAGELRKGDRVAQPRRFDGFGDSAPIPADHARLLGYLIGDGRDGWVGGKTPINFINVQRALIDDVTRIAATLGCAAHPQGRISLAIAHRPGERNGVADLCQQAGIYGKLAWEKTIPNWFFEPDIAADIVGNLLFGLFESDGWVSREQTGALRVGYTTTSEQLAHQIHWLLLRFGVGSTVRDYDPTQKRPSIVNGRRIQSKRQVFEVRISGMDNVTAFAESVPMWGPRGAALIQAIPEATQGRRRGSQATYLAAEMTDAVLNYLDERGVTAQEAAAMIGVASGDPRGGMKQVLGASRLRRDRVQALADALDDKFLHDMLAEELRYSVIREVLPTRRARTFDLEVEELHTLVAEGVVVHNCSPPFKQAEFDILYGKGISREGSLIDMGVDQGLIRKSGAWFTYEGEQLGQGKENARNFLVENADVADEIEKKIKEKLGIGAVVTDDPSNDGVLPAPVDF
Description: Fluorescence Cell-Free Homogeneous Dose Retest to Identify Inhibitors of RecA-Intein Splicing Activity. [Related pubchem assays (depositor defined):AID2097, AID2223, AID489010, AID492950]. The format is functional.

The target in test [2] is T4, Fructose-bisphosphate aldolase (Mycobacterium tuberculosis, UniProt P9WQA3).
T4 sequence (P9WQA3 whole entry): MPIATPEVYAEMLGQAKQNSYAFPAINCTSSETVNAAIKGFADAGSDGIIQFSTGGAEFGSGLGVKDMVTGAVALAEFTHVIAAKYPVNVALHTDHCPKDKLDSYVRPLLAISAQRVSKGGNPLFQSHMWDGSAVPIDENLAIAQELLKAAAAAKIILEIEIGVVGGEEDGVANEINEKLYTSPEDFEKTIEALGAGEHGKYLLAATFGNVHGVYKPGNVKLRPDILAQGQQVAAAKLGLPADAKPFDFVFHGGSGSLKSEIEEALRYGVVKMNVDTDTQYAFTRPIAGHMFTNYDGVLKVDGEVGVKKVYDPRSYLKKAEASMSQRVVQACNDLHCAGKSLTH
In words: Fluorescence-based biochemical high throughput dose response assay for inhibitors of the fructose-bisphosphate aldolase (FBA) of M. tuberculosis. Type of test: functional.

Test [3] is described as follows: cytotoxicity toward HCT116 cells – cell-based, CellTiter-Glo luminescence, IC50, dose response (AID 1117332). Type of test: functional. As to conditions: HCT-116. A general note: ATP-based viability assays read luminescence as a measure of living cells.
The nature of test [4]: CellTiter-Glo luminescent dose response of DLD-1 viability loss (AID 1117352). The format is functional.
A short description of test [5]: cytotoxicity toward HT-29 cells – cell-based, CellTiter-Glo luminescence, IC50, dose response (AID 1117330). The format is functional.
Test [6] in a line: RKO cell viability reduction, dose response, CellTiter-Glo luminescence (AID 1117322). Type of test: functional.
Test [7] in a line: cytotoxicity toward Colo320 cells – cell-based, CellTiter-Glo luminescence, IC50, dose response (AID 1117334). The format is functional. As to conditions: COLO 320.
Test [8] is described as follows: SNU-C1 cell viability reduction, dose response, CellTiter-Glo luminescence (AID 1117323). The format is functional, cell-based.
A short description of test [9]: HCT116 cell viability decrease, GSK3B pretreatment – CellTiter-Glo, IC50, dose response (AID 1117339). Type of test: functional. As to conditions: HCT-116.
Test [10] can be described thus: Concentration-dependent survival of SW480 colon cancer line, luminescence detection with CellTiter-Glo, half-maximal inhibitory concentration (AID 1117338). The format is functional.
For another test, the target named is Nonstructural protein 1 (Influenza A virus, UniProt Q194T2). The format is functional, Influenza A virus (A/California/07/2009(H1N1)).
Chain of Nonstructural protein 1 (Q194T2 whole entry): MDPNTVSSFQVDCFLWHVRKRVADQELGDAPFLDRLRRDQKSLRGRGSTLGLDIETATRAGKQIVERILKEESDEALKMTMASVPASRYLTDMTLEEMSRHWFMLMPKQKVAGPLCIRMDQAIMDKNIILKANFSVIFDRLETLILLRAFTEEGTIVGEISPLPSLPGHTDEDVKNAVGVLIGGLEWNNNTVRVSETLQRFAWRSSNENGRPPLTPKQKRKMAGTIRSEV
Test [11] deals with T5, Mannose-6-phosphate isomerase (Homo sapiens, UniProt P34949).
T5 sequence (P34949 whole entry): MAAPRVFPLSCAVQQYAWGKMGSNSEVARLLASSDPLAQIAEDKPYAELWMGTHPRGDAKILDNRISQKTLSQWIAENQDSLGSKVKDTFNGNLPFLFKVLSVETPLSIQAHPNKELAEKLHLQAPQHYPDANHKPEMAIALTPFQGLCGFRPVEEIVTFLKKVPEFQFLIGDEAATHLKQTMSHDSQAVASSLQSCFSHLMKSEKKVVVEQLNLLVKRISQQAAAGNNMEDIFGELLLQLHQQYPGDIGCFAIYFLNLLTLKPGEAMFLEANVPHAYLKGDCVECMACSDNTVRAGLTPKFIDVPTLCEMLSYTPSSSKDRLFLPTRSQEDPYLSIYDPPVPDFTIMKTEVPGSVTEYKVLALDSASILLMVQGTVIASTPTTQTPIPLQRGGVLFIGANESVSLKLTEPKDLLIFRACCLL
In words: inhibitors of human PMI, primary screen, biochemical, fluorescence intensity, coupled assay (AID 1209).

The nature of test [12]: NIH-3T3 fibroblast cytotoxicity, dose response, cytotoxicity control, cell-based, fluorescence, Alamar Blue, secondary assay (AID 2327).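 Note: NIH-3T3 mouse fibroblasts cultured with fluconazole at 8 µg/mL.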 Type of test: functional. (The colour change of resazurin is a common sign of viable cells or microbes.)
Test [13] in a line: C. albicans growth with fluconazole, confirmation, fluorescence, retest (AID 2467). The format is functional, cell-based.
Test [14] is described as follows: ADAM10 inhibitors, peptide cleavage, dose response, biochemical, QFRET (AID 743254).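 Note: ADAM10 enzyme with the DM2 quenched FRET peptide as substrate; EDANS fluorescence gain as the protease cuts the substrate; inhibitor potency against ADAM10 proteolytic activity.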
In test [15] the target is T6, Disintegrin and metalloproteinase domain-containing protein 17 (Homo sapiens, UniProt P78536). Description: ADAM17 protease inhibitors, dose response, counter-screen for ADAM10 exosite inhibitor project, biochemical, quenched FRET substrate (AID 743253). On the technique in general: The purpose of a counterscreen is to sort out artefacts and off-target activity.
T6 sequence (P78536 whole entry, the tested form may be a part): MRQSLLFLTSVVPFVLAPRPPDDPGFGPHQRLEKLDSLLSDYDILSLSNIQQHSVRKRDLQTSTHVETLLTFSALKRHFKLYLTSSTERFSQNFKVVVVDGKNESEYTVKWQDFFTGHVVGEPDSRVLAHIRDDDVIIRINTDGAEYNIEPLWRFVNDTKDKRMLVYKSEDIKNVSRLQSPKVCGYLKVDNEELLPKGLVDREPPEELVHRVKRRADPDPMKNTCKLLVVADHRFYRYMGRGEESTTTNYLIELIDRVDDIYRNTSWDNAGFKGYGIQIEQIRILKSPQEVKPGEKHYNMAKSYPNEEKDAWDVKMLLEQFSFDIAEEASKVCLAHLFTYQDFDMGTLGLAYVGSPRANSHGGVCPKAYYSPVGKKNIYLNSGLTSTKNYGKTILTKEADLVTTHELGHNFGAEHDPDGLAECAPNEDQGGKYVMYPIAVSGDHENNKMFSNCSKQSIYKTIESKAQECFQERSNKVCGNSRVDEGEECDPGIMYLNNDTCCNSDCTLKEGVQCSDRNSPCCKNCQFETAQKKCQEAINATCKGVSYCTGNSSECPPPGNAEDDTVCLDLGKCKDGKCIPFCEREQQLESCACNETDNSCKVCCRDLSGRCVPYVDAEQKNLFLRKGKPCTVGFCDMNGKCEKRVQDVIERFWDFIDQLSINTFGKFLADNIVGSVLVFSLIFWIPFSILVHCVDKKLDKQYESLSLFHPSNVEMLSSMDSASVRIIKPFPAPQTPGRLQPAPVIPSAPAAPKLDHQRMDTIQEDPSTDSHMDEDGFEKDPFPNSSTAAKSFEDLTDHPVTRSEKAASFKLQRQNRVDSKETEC
The target of test [16] is 72 kDa type IV collagenase (Homo sapiens, UniProt P08253). Description: Dose Response validation of uHTS RPN11 inhibitor hits using a MMP-2 Fluorescence assay. Type of test: functional.
Chain of 72 kDa type IV collagenase (P08253 whole entry): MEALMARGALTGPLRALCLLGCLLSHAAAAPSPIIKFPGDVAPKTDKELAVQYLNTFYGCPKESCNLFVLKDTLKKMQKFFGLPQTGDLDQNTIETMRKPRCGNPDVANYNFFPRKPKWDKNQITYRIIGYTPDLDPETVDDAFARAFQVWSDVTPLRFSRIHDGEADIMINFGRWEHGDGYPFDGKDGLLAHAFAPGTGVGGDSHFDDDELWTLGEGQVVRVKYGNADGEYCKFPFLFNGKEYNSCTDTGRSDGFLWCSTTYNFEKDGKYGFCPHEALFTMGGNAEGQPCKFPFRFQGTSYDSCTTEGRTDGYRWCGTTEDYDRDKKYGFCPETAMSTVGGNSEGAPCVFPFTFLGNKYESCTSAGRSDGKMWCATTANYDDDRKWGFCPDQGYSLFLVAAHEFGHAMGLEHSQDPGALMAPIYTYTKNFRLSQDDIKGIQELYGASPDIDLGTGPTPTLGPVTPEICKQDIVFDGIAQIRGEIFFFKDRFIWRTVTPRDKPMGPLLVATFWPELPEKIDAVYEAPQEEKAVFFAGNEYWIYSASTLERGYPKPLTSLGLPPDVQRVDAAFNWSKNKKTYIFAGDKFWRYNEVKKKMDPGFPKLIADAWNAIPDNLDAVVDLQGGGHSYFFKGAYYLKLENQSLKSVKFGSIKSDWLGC
Test [17] in a line: cells. The format is functional, cell-based.
A further test concerns the target Prothrombin (Bos taurus, UniProt P00735). Description: thrombin inhibition, dose response, biochemical, fluorescence polarization, uHTS hits (AID 602369). Type of test: functional.
The target of test [18] is T6, Disintegrin and metalloproteinase domain-containing protein 17. Description: exosite inhibitors of ADAM17, dose response, biochemical (AID 743260).
A short description of test [19]: cells. Type of test: functional, cell-based. This is another data set of the same source.
Test [20] addresses 26S proteasome non-ATPase regulatory subunit 14 (Homo sapiens, UniProt O00487). Description: inhibition of proteasome subunit RPN11 – biochemical, fluorescence polarization, uHTS hits, confirmation (AID 602368). The format is functional.
Test [21] in a line: HeLa 4N DNA content increase, dose response, cell-based, IC50 (AID 1117351). The format is functional.
A short description of test [22]: HeLa 2N DNA content increase, dose response, cell-based, IC50 (AID 1117349). Type of test: functional.
Test [23] addresses T5, Mannose-6-phosphate isomerase. Description: human PMI inhibitors, high substrate, primary screen, biochemical, fluorescence intensity, high mannose 6-phosphate (AID 1220).

Chain of 26S proteasome non-ATPase regulatory subunit 14 (O00487 whole entry): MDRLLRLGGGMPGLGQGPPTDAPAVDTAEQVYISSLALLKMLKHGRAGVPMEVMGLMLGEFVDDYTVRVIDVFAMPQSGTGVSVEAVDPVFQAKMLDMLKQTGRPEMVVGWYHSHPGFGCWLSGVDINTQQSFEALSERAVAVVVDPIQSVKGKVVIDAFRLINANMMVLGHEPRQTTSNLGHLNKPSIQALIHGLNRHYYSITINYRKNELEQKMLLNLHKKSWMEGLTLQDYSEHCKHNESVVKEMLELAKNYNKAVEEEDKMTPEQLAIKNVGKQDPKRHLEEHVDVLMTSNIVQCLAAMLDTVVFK

Take `CCCOc1ccc2c(=O)c(N3C(=O)c4ccccc4C3=O)c(C)oc2c1`: the Ki – broadly, the dissociation constant of the complex between target and ligand, obtained from inhibition or displacement – on fMet-Leu-Phe receptor was > 66.7 µM (inactive).
Take `COc1ccccc1-c1c(C)oc2cc(OC(=O)c3ccco3)ccc2c1=O`: at fMet-Leu-Phe receptor, the Ki is 9 µM (active). Besides, in test [1], the AC50 (usually the midpoint of the concentration-response curve, whichever way the signal moves) was 21.8 µM (active). In addition, the concentration giving a half-maximal response (EC50) (commonly the midpoint of the concentration-response curve) at Protein RecA was 23.8 µM (active). Besides, the IC50 – broadly, the concentration that inhibits the measured activity by half – in test [2] was 1.55 µM (active).
For the molecule `CCCCCCCCOC(=O)c1ccccc1C(=O)OCCCCCCCC`, the IC50 in test [3], in test [4], in test [5], in test [6], in [7] and in test [8] was > 20 µM (inactive) in each case. Further, the IC50 in test [9] and in [10] was > 20 µM (inactive) in each case.
Regarding `OCCN1CCN(Cc2cc(Cl)c3cccnc3c2O)CC1`, the IC50 at Nonstructural protein 1 is 3.93 µM (active); in test [11], 4.09 µM (active). Further, the EC50 in test [12] was 121 µM (active); in test [13], > 38 µM (not active).
With `COC(=O)c1ccc(C2C(C(=O)c3ccc(OC)cc3)=C(O)C(=O)N2Cc2ccco2)cc1` (centres undefined), the Ki at fMet-Leu-Phe receptor is 43 µM (inactive).
For the molecule `C=CC[C@@H](CC(=O)N(CCO)Cc1ccccc1)C(=O)N[C@H](COC(=O)[C@@H](CC=C)Cc1ccc(F)cc1)Cc1c[nH]c2ccccc12`, the IC50 in test [14] and in [15] was > 69.5 µM (inactive) each time.
Turning to `COCC/N=c1\scc(-c2cc(OC)c(OC)c(OC)c2)n1/N=C/c1c(C)[nH]c2ccccc12`, the IC50 is > 69.5 µM (inactive) in [14]; > 100 µM (inactive) in test [16]; > 69.5 µM (inactive) in test [15]; 57.9 µM (active) on Prothrombin; > 69.5 µM (inactive) in [18]; 76.9 µM (active) in test [20]. For the same molecule, the 50% effective concentration (EC50) in the test “cells [17]” and in “cells [19]” was > 350 µM (not active) each time.
Regarding `O[C@@H](CNC[C@H](O)[C@H]1CCc2cc(F)ccc2O1)[C@@H]1CCc2cc(F)ccc2O1`, the IC50 in [3] was 6.48 µM (inactive); in [4], 15.3 µM (inactive); in test [5] it was 4.5 µM (active); in [6], 3.28 µM (active); in [21], > 10 µM (inactive); in test [7], > 20 µM (inactive). Also, the IC50 was 5.09 µM (inactive) in test [8], 2.4 µM (active) in [9], > 10 µM (inactive) in test [22] and 3.6 µM (active) in [10].
Consider `CCc1ccc(/C=c2\s/c(=C\C(=O)C(C)(C)C)[nH]c2=O)cc1`, for which the IC50 in [14] and in test [15] was > 69.5 µM (inactive) each time.
On to `CCOc1ccc(/C=N/c2cccc3ncccc23)cc1`, for which the IC50 in [11] and in [23] was > 50 µM (not active) in each case.
On to `Cc1ccccc1C(=O)Nc1ccc(C(=O)N2CCCC(N(C)C)c3ccccc32)cc1` (centres undefined) [MOZAVAPTAN], for which the IC50 in test [21] and in [22] was > 10 µM (inactive) in each case.

(Values after ChEMBL document CHEMBL1201862, “PubChem BioAssay data set” (2004).)
